Test results reported in patent US12157741B2, “Macrocyclic inhibitors of DYRK1A” (DANA-FARBER CANCER INSTITUTE, INC., priority 2018, dated 2024).

Legend:
Type in all cases: biochemical
LRRK2 (G2019S) = molecular target: T1, LRRK2 (G2019S) (Homo sapiens, UniProt Q5S007, G2019S); assay: LRRK2(G2019S) enzyme assay (Promega ADP-Glo Kinase assay); details: 25 μM ATP, read-out: Enzyme activity against LRRK2 (G2019S)
T1 construct: purchased SignalChem L10-12GG
Procedure: All LRRK2 kinase inhibition assays were conducted by using Promega™ ADP-Glo™ Kinase assay systems (Cat No. V4475).
For LRRK G2019S, each compound mixed with 0.2 μg/μL of substrate, 25 μM ATP, 16 ng of LRRK2 G2019S enzyme (SignalChem, L10-12GG). All samples were diluted with kinase reaction buffer (40 mmol/L TrisHCl, 10 mmol/L MgCl2, and 0.1 μg/μL BSA, 0.05 mM DTT). After a 2 h reaction at 25° C., ADP-Glo™ (Promega™, V9102) reagent was added and incubated at rt for 40 min. Finally, kinase detection reagent (Promega™, Cat No. V6930) was added and reacted at 25° C. for 10 min. The luminescence signals were detected by using Synergy™ Neo2 microplate reader (BioTek®). Compound inhibition curve was fitted using GraphPad Prism 8.0 software.

DYRK1A = molecular target: T2, DYRK1A (Homo sapiens, UniProt Q13627); assay: DYRK1A enzyme assay (Promega ADP-Glo Kinase assay); details: for IC50: ADP-Glo, 3 μM ATP, read-out: Enzyme activity against DYRK1A; for potency against DYRK1A (statement on Table 5): statement in words
T2 construct: purchased Thermo Fisher Scientific PR7189B
Procedure: All DYRK1A kinase inhibition assays were conducted by using Promega™ ADP-Glo™ Kinase assay systems (Cat No. V9102).
For DYRK1A enzyme assay, each inhibitor mixed with 0.2 μg/μL of substrate (MVBP, SignalChem, M42-51N), 3 μM ATP (Promega™, Cat No. V9102), 3 ng of DYRK1A enzyme (Thermo Fisher Scientific, PR7189B) in 384-well plate. All samples were diluted with kinase reaction buffer (40 mM Tris HCl, 10 mM MgCL2, and 0.1 μg/μL BSA (bovine serum albumin), 0.05 mM DTT). After 1 h reaction at 25° C., ADP-Glo™ (Proeg™, V9102) reagent was added and incubated at rt for 40 min. Finally, kinase detection reagent (Promega™, Cat No. V6930) was added and reacted at 25° C. for 10 min. The luminescence signals were detected by using Synergy™ Neo2 microplate reader (BioTek®). Compound inhibition curve was fitted using GraphPad Prism 8.0 software.

CLK1 = molecular target: T3, CLK1 (Homo sapiens, UniProt P49759); assay: CLK1 enzyme assay (Promega ADP-Glo Kinase assay); details: 10 μM ATP, read-out: Enzyme activity against CLK1
T3 construct: purchased Signalchem C57-11G
Procedure: All CLK1 kinase inhibition assays were conducted by using Promega™ ADP-Glo™ Kinase assay systems (Cat No. V9102).
For DYRKIA enzyme assay, each inhibitor mixed with 0.1 μg/μL of substrate (MBP, SignalChem, M42-51N), 10 μM ATP (Promega™, Cat No. V9102), 1.6 ng of CLK1 enzyme (Signalchem, C57-11G) in 384-well plate. All samples were diluted with kinase reaction buffer (40 mM Tris HCl, 10 mM MgCL2, and 0.1 μg/μL BSA, 0.05 mM DTT). After 1 h reaction at 25° C., ADP-Glo™ (Promega™, Cat No. V9102) reagent was added and incubated at rt for 40 min. Finally, kinase detection reagent (Promega™, Cat No. V6930) was added and reacted at 25° C. for 10 min. The luminescence signals were detected by using Synergy™ Neo2 microplate reader (BioTek®). Compound inhibition curve was fitted using GraphPad Prism 8.0 software.

DYRK1B = molecular target: T4, DYRK1B (Homo sapiens, UniProt Q9Y463); assay: Invitrogen Zlyte assay, DYRK1B
T4 construct: purchased Invitrogen (assay run by the vendor)
T4 sequence (Q9Y463 whole entry): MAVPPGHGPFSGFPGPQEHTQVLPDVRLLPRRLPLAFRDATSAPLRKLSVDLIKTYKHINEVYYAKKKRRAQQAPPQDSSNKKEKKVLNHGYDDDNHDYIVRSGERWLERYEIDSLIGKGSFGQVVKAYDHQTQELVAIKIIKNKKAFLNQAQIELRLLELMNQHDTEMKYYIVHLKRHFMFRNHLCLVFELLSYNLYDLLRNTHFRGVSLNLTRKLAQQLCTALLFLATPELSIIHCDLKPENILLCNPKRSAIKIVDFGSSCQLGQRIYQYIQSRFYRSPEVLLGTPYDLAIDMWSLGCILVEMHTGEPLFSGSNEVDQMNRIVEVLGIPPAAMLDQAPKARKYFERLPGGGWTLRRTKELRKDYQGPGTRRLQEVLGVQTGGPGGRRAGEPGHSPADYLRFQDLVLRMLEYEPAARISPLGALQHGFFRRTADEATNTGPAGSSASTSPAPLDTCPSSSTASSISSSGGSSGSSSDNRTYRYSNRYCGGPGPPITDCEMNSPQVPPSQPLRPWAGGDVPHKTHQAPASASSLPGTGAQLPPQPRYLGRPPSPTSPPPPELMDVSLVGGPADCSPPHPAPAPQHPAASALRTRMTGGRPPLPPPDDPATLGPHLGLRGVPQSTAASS

T1 sequence (Q5S007 whole entry G2019S): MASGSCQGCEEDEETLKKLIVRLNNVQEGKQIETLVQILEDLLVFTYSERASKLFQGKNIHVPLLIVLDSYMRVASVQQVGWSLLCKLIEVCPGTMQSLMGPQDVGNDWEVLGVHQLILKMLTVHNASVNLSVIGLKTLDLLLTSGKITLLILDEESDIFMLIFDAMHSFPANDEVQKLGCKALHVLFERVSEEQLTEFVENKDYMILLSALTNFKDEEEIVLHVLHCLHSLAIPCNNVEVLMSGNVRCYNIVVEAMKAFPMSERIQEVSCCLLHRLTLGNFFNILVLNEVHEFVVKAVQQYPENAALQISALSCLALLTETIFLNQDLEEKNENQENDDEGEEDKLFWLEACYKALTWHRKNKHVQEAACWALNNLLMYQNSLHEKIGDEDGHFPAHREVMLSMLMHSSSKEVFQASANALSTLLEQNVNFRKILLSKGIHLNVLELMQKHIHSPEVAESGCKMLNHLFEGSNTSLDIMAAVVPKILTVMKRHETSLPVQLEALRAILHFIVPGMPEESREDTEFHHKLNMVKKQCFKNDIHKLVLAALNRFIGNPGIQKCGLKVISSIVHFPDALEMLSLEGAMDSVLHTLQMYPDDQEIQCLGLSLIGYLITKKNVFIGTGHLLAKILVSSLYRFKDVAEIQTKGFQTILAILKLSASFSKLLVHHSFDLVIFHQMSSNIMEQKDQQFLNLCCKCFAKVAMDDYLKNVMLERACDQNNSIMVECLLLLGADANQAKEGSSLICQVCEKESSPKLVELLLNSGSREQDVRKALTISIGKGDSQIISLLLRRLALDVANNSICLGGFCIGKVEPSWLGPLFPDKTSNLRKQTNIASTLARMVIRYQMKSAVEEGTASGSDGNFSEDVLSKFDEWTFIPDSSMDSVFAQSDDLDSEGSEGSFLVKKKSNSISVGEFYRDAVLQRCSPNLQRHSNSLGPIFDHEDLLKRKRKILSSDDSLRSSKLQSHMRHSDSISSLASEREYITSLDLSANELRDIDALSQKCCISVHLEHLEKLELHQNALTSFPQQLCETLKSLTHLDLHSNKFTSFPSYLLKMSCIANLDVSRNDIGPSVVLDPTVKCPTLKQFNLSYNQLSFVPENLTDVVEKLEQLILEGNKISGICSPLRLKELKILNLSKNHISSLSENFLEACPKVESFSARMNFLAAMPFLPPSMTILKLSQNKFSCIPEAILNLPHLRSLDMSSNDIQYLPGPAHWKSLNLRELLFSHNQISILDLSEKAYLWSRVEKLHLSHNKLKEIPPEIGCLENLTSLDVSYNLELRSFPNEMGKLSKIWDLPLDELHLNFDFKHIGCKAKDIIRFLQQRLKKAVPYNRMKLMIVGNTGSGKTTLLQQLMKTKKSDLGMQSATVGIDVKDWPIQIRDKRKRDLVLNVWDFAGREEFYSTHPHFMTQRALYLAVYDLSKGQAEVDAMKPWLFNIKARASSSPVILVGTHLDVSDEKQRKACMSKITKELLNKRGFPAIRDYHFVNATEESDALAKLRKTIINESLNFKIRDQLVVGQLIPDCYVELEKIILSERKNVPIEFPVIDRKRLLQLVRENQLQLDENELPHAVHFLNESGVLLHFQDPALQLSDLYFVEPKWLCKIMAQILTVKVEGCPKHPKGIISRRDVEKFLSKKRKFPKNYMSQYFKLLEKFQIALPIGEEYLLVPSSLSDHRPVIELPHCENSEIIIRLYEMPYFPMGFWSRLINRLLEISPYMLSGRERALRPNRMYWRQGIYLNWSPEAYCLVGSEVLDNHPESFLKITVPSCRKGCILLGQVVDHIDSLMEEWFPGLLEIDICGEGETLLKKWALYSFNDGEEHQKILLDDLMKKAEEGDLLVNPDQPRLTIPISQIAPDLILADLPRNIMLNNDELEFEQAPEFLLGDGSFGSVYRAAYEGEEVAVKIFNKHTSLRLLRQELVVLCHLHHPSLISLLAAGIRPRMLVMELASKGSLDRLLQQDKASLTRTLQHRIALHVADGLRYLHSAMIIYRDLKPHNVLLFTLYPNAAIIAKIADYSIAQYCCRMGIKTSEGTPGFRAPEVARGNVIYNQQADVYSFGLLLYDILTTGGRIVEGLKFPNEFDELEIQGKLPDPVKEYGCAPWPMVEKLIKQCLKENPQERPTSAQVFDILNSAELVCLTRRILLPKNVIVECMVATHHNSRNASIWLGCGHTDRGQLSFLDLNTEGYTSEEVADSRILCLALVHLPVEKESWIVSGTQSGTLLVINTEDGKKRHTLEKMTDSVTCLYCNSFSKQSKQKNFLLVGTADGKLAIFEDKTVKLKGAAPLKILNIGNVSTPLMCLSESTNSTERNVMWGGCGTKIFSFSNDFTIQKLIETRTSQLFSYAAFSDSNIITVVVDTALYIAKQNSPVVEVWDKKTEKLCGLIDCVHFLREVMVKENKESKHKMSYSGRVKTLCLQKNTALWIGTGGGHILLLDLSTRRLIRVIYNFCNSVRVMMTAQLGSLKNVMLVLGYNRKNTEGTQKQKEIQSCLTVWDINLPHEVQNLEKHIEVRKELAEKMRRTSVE
T3 sequence (P49759 whole entry): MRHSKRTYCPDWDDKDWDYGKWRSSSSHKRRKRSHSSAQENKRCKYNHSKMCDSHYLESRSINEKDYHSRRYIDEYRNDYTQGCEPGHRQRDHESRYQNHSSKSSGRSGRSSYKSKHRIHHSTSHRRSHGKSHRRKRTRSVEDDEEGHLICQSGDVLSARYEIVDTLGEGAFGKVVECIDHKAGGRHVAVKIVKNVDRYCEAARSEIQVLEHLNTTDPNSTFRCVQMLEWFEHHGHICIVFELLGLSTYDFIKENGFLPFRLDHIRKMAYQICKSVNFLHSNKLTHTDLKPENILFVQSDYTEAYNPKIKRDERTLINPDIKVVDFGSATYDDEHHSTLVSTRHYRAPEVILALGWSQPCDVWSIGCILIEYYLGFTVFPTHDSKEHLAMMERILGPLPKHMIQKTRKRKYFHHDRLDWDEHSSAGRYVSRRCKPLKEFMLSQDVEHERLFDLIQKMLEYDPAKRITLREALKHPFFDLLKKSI

SMILES	IC50 (LRRK2 (G2019S))	IC50 (DYRK1A)	potency against DYRK1A (statement on Table 5) (DYRK1A)	IC50 (CLK1)	IC50 (DYRK1B)
COc1c2c(nn1C)CN(C(C)C)C(=O)CCCn1cc(c(C(F)(F)F)n1)-c1c(C)[nH]c3ncc-2cc13 [Compound 51, (Z)-5-isopropyl-35-methoxy-22,31-dimethyl-13-(trifluoromethyl)-11H,21H,31H-5-aza-2(3,5)-pyrrolo[2,3-b]pyridina-1(4,1),3(4,3)-dipyrazolacyclononaphan-6-one]	–	–	–	–	0.533 µM
Cc1[nH]c2ncc3cc2c1-c1cn(nc1C(F)(F)F)CCCC(=O)N(C)Cc1nn(C)c(C#N)c1-3 [Compound 52, (Z)-22,31,5-trimethyl-6-oxo-13-(trifluoromethyl)-11H,21H,31H-5-aza-2(3,5)-pyrrolo[2,3-b]pyridina-1(4,1),3(4,3)-dipyrazolacyclononaphane-35-carbonitrile]	–	–	–	–	0.055 µM
COCCn1nc2c(c1C#N)-c1cnc3[nH]cc(c3c1)-c1cn(nc1C(F)(F)F)CCC(=O)N(C)C2 [Compound 67, (Z)-31-(2-methoxyethyl)-5-methyl-6-oxo-13-(trifluoromethyl)-11H,21H,31H-5-aza-2(3,5)-pyrrolo[2,3-b]pyridina-1(4,1),3(4,3)-dipyrazolacyclooctaphane-35-carbonitrile]	> 0.1 µM	< 0.05 µM	most potent	> 0.1 µM	–
CN1CCCCn2cc(c(C(F)(F)F)n2)-c2c[nH]c3ncc(cc23)-c2cn(C)nc2C1=O [Compound 75, (Z)-31,5-dimethyl-13-(trifluoromethyl)-11H,21H,31H-5-aza-2(3,5)-pyrrolo[2,3-b]pyridina-1(4,1),3(4,3)-dipyrazolacyclononaphan-4-one]	> 0.1 µM	> 0.1 µM	–	> 0.1 µM	–
CN1CCCCn2cc(c(C(F)(F)F)n2)-c2c[nH]c3ncc(cc23)-c2c(nn(C)c2C#N)C1=O [Compound 78, (Z)-31,5-dimethyl-4-oxo-13-(trifluoromethyl)-11H,21H,31H-5-aza-2(3,5)-pyrrolo[2,3-b]pyridina-1(4,1),3(4,3)-dipyrazolacyclononaphane-35-carbonitrile]	> 0.1 µM	> 0.1 µM	–	> 0.1 µM	–

Second part, led by results:

IC50 (LRRK2 (G2019S))	IC50 (DYRK1A)	potency against DYRK1A (statement on Table 5) (DYRK1A)	IC50 (CLK1)	SMILES	IC50 (DYRK1B)
> 0.1 µM	< 0.05 µM	most potent	< 0.05 µM	CN1Cc2nn(C)cc2-c2cnc3[nH]cc(c3c2)-c2cn(nc2C(F)(F)F)CCCC1=O [Compound 43, (Z)-31,5-dimethyl-13-(trifluoromethyl)-11H,21H,31H-5-aza-2(3,5)-pyrrolo[2,3-b]pyridina-1(4,1),3(4,3)-dipyrazolacyclononaphan-6-one]	–
> 0.1 µM	< 0.05 µM	most potent	< 0.05 µM	COCCn1cc2c(n1)CN(C)C(=O)CCCn1cc(c(C(F)(F)F)n1)-c1c[nH]c3ncc-2cc13 [Compound 59, (Z)-31-(2-methoxyethyl)-5-methyl-13-(trifluoromethyl)-11H,21H,31H-5-aza-2(3,5)-pyrrolo[2,3-b]pyridina-1(4,1),3(4,3)-dipyrazolacyclononaphan-6-one]	–
> 0.1 µM	< 0.05 µM	most potent	< 0.05 µM	CN1Cc2nn(C3CCNCC3)cc2-c2cnc3[nH]cc(c3c2)-c2cn(nc2C(F)(F)F)CCCC1=O [Compound 60, (Z)-5-methyl-31-(piperidin-4-yl)-13-(trifluoromethyl)-11H,21H,31H-5-aza-2(3,5)-pyrrolo[2,3-b]pyridina-1(4,1),3(4,3)-dipyrazolacyclononaphan-6-one]	–
> 0.1 µM	< 0.05 µM	most potent	> 0.1 µM	COCCn1nc2c(c1C#N)-c1cnc3[nH]cc(c3c1)-c1cn(nc1C(F)(F)F)CCCC(=O)N(C)C2 [Compound 61, (Z)-31-(2-methoxyethyl)-5-methyl-6-oxo-13-(trifluoromethyl)-11H,21H,31H-5-aza-2(3,5)-pyrrolo[2,3-b]pyridina-1(4,1),3(4,3)-dipyrazolacyclononaphane-35-carbonitrile]	–
0.05 to 0.1 µM	0.05 to 0.1 µM	–	< 0.05 µM	CN1Cc2nn(C)cc2-c2cnc3[nH]cc(c3c2)-c2cn(nc2C(F)(F)F)CCC1=O [Compound 63, (Z)-31,5-dimethyl-13-(trifluoromethyl)-11H,21H,31H-5-aza-2(3,5)-pyrrolo[2,3-b]pyridina-1(4,1),3(4,3)-dipyrazolacyclooctaphan-6-one]	–
> 0.1 µM	> 0.1 µM	–	> 0.1 µM	CN1Cc2nn(C3CCNCC3)cc2-c2cnc3[nH]cc(c3c2)-c2cn(nc2C(F)(F)F)CCC1=O [Compound 65, (Z)-5-methyl-31-(piperidin-4-yl)-13-(trifluoromethyl)-11H,21H,31H-5-aza-2(3,5)-pyrrolo[2,3-b]pyridina-1(4,1),3(4,3)-dipyrazolacyclooctaphan-6-one]	–
